According to paper PMC6934184, “Selective DNA-PKcs inhibition extends the therapeutic index of localized radiotherapy and chemotherapy” (The Journal of Clinical Investigation, 2019):

Biological target: T1, NEK9 (Homo sapiens, UniProt Q8TD19)
T1 construct: purchased Thermo Fisher Scientific (Life Technologies) SelectScreen
Assay: SelectScreen Z'LYTE
Assay type: biochemical
How it was run: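 SelectScreen broad panel; activity (Z'LYTE, Adapta) plus binding formats. ATP: Km app for CSF1R Z'LYTE; 10 for CAMK1 Adapta. Readout = % per kinase.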

T1 sequence (Q8TD19 whole entry): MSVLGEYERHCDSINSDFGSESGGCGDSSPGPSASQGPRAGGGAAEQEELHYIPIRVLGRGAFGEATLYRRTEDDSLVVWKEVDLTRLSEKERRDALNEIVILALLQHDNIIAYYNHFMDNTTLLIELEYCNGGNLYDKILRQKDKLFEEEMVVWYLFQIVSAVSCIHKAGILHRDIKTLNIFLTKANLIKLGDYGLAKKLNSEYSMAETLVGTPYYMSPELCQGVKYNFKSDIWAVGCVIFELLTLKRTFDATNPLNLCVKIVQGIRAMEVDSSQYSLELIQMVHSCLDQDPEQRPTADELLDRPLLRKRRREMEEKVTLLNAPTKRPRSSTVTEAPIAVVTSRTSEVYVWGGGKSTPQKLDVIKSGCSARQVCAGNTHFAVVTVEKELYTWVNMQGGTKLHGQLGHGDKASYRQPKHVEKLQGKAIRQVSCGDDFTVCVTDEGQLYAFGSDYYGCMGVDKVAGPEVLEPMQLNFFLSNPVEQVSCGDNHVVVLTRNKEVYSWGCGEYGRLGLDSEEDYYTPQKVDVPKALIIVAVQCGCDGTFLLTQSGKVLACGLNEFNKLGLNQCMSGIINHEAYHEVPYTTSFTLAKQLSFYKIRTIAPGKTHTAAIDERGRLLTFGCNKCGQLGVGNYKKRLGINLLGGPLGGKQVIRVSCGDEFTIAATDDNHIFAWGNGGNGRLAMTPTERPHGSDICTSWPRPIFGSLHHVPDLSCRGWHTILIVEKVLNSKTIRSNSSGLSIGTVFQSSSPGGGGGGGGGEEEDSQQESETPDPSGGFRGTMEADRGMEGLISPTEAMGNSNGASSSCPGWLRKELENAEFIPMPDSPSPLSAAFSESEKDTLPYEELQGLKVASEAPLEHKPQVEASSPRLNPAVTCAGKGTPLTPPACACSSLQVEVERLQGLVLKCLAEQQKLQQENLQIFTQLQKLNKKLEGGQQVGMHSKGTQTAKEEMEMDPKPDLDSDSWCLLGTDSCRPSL

`CN(C(=O)CN1CCOCC1)c1ccc2sc3c(-c4cccc5c(=O)cc(N6CC7CCC(C6)O7)oc45)cccc3c2c1` [NU5455] was tested, and the inhibition at 1 µM was -7.2%.
